From patent US8178575B2, “Derivatives of azabicyclo octane, the method of making them and the uses thereof as inhibitors of dipeptidyl peptidase IV” (Shanghai Hengrui Pharmaceutical Co., Ltd., priority 2007, dated 2012)
Where a name gives a salt, the structure may show the parent alone.

Key:
[1] = test system: type II diabetes KKAy mice; assay: Oral glucose tolerance test in type II diabetes KKAy mice; type: in vivo
Procedure: Normal KKAy mice had been fasted for 6 hours, and then were randomly grouped according to weights and fasting blood glucose, 5 mice in each group. The groups included a blank control group as well as different doses of the treatment groups as follows:
30 minutes later, animals were administered 2.5 g/kg (female KKAy mice) or 1.5 g/kg (male KKAy mice) glucose by gavage. After administration of glucose at 30, 60 and 120 minuets, serum glucose levels were determined by Glucometer.
• 3. Mean±SD and Student-t test or Anova were used in data statistical analysis. • 4.

normal ICR mice = assay: Oral glucose tolerance test in normal ICR mice; type: in vivo; conditions: male ICR mice, 30 minutes after 2.5 g/kg glucose
Procedure: Normal male ICR mice were randomly grouped according to weights, 6 mice in each group. The groups included a blank control group as well as different doses of the treatment groups as follows:
Animals in each group had been fasted for 6 hours, and then pretreated with compounds or double distilled water by gavage respectively in single administration. 30 minutes later, animals were administered 2.5 g/kg glucose by gavage. Before administration and after administration of glucose at 30, 60 and 120 minuets, blood was taken to determine serum glucose levels.
Serum glucose is determined by glucose kit. 250 μl working enzyme solution was taken, and then 5 μl serum was added to the solution. A blank tube (5 μl double distilled water was added) and a standard tube (5 μl glucose standard solution was added) were established simultaneously, shaking respectively, and in 37° C. water bath for 20 minutes. The blank tube was tuned with, and then calorimetric assay was determined at OD505 nm. Serum glucose concentration (BG, mmol/l)=ODsample tube/ODstandard tube×5.55 Data Processing and Statistical Analysis: • 1. Mean±SD and Student-t test were used in data statistical analysis. • 2. The percentage of blood glucose decline in 30 minutes after sugar administration as well as the area under the curve (AUC) was calculated.

QPP = molecular target: T1, QPP (Homo sapiens, UniProt Q9UHL4); assay: Selective activity determination of DPPIV inhibitors, recombinant enzyme, fluorescence substrate; type: biochemical; conditions: recombinant protein from insect expression system
T1 construct: made in house; host or cells: insect expression system
Text: (§1) It can cut off the first two amino acids in many of the N-peptide to change or lose its biological activity. Gene knockout animal and human experiments indicate that reducing DPPIV activity effectively and specifically in vivo can improve blood insulin content and lower blood sugar levels, so as to improve the symptoms of diabetes effectively.
(§2) By using the insect expression system, the recombinant proteins of DPPIV, DPP8, DPP9 and QPP had been obtained. The activities of the […] enzymes were detected by fluorescence Substrate. The inhibitory effects of compounds were evaluated by the effects of different compounds on inhibiting enzyme activities. Positive reference compound was LAF237.

DPPIV = molecular target: T2, DPPIV (Homo sapiens, UniProt P27487); assay: as above; type: biochemical
T2 construct: made in house; host or cells: insect expression system
T2 sequence (P27487 whole entry): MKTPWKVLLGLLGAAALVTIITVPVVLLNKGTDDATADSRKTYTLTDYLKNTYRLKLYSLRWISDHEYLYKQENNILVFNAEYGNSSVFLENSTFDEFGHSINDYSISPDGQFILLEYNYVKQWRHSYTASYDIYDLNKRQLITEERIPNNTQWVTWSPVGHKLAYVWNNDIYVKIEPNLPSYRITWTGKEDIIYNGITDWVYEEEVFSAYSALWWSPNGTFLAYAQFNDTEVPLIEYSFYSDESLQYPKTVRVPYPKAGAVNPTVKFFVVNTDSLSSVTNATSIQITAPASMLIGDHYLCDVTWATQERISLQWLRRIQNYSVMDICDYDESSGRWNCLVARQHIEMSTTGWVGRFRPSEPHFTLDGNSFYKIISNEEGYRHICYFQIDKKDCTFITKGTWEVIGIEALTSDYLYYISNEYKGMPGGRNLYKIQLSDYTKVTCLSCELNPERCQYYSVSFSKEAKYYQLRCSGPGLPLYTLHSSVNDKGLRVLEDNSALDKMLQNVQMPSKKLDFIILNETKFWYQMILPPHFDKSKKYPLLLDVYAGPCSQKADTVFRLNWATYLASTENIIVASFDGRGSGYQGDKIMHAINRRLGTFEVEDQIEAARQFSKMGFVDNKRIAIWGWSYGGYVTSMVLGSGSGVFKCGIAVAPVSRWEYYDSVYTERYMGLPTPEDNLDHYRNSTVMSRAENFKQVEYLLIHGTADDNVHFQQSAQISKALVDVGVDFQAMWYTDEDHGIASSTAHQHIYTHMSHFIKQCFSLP
Text: as §1, §2

FAP = molecular target: T3, FAP (Homo sapiens, UniProt Q12884); assay: Selective activity determination of DPPIV inhibitors, fluorescence substrate; type: biochemical
T3 sequence (Q12884 1-760): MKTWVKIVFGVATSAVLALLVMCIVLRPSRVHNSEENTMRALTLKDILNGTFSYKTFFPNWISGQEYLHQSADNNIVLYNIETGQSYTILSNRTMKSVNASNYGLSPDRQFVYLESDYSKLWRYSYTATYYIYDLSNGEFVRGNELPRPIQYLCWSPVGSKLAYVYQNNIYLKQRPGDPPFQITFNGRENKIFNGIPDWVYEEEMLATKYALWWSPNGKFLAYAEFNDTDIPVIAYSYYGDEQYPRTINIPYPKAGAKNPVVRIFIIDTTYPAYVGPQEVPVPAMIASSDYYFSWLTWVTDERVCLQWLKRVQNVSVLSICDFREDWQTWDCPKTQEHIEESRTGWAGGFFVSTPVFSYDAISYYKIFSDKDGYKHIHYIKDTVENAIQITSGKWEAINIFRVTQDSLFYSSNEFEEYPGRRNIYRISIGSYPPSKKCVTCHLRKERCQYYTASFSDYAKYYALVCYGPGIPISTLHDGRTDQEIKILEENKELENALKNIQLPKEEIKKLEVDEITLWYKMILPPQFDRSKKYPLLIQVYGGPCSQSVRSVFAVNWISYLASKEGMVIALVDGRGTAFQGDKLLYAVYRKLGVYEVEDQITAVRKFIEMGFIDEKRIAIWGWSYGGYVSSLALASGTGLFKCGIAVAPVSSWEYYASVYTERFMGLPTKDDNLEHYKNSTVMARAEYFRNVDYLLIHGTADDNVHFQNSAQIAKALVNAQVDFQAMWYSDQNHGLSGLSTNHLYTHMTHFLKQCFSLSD
Text: as §1, §2

[2] = female KKAy mice, 10 mg/kg by gavage, 30 minutes after 2.5 g/kg glucose
[3] = male KKAy mice, 10 mg/kg by gavage, 30 minutes after 1.5 g/kg glucose
[4] = male KKAy mice, 30 mg/kg by gavage, 30 minutes after 1.5 g/kg glucose
[5] = Test 1, high dose (10 mg/kg by gavage)
[6] = Test 1, low dose (1 mg/kg by gavage)
[7] = Test 1, middle dose (3 mg/kg by gavage)
[8] = Test 2, high dose (10 mg/kg by gavage)
[9] = Test 2, low dose (1 mg/kg by gavage)
[10] = Test 2, middle dose (3 mg/kg by gavage)

Structure (SMILES) | percentage of blood glucose decreased vs control group [1, 2] | percentage of blood glucose decreased vs control group [1, 3] | percentage of blood glucose decreased vs control group [1, 4] | percentage of blood glucose decreased vs control group (normal ICR mice; [5]) | percentage of blood glucose decreased vs control group (normal ICR mice; [6]) | percentage of blood glucose decreased vs control group (normal ICR mice; [7]) | percentage of blood glucose decreased vs control group (normal ICR mice; [8]) | percentage of blood glucose decreased vs control group (normal ICR mice; [9]) | percentage of blood glucose decreased vs control group (normal ICR mice; [10]) | IC50 (QPP) | IC50 (DPPIV) | IC50 (FAP) | percentage of blood glucose decreased vs control group ([1]; female KKAy mice, 3 mg/kg by gavage, 30 minutes after 2.5 g/kg glucose)
COC(=O)N1C[C@H]2C[C@@H](NCC(=O)N3CCC[C@H]3C#N)C[C@H]2C1 (relative stereo) [Example 2, cis-5-[2-(2-Cyano-pyrrolidin-1-yl)-2-oxo-ethylamino]-hexahydro-cyclopenta[c]pyrrole-2-carboxylic acid methyl ester hydrochloride] | 21.55% | 13.79% | 12.23% | 26.93% | 25.54% | 25.92% | 27.75% | 24.51% | 26.96% | > 56000 nM | 98 ± 36.4 nM | 476 ± 112 nM | –
CN(C)C(=O)N1C[C@H]2C[C@@H](NCC(=O)N3CCC[C@H]3C#N)C[C@H]2C1 (relative stereo) [Example 1, cis-5-[2-(2-Cyano-pyrrolidin-1-yl)-2-oxo-ethylamino]-hexahydro-cyclopenta[c]pyrrole-2-carboxylic acid dimethylamide hydrochloride] | 24.68% | 16.22% | 17.15% | 31.85% | 19.16% | 22.85% | 32.05% | 26.10% | 30.24% | – | – | – | 40.63%
